Data on 2 compounds can be found in US20090069429A1 (SGP & SONS AB, priority 2006, published 2009).

The test system of one assay is soleus muscles. To be noted: 48-h T3 subcutaneously; 90 Hz continuous stimulation; cited from earlier work.
Assay [1] deals with slow-twitch soleus muscle. As to the kind of experiment: Contractile endurance and force of isolated soleus muscle from rats given AKG, continuous electrical stimulation at 40 Hz. The format is in vivo, rat. As for the experimental part: FIG. 4 presents contracting characteristics of soleus muscles in uremic rats +test component (n=10), control rats+placebo (n=8), control rats+test component (n=4) incubated in Krebs Ringer physiological solution (30 min. incubation) and electrically stimulated at 40 Hz (32 mA, 1 ms, <90V).
(§1) Animals were kept in a thermostatically controlled chamber, containing the equipment to measure contractile force in isolated rat skeletal muscle, i.e. a computer, analogue-digital transducer, amplifier, differential amplifier, stimulator, […] and 5% carbon dioxide.
(§2) Thermostatically controlled chamber, maintained at 30° C., contained a glass diffuser for efficient oxygenation of buffer, a mounting/stimulation block with 2 pins to fix portion of fibula in place and 2 silver stimulating electrodes.

Assay [2] has as its system fast-twitch extensor digitorum longus muscle (EDL). Put plainly: Contractile endurance and force of isolated extensor digitorum longus muscle from rats given AKG, continuous electrical stimulation at 90 Hz. The format is in vivo, rat. As for the experimental part: FIG. 5 presents contracting characteristics of extensor digitorum longus muscle in uremic rats+test component (n=3) and control rats+test component (n=2) incubated in Krebs Ringer solution and uremic rats+test component (n=3) incubated in Uremic Buffer (30 min.), 90 Hz, 1 ms and <90V.
as §1, §2

Another assay concerns muscle. As to the kind of experiment: Muscle performance after oral AKG (general conclusions). Format: in vivo, rat. As to the method:
as §1, §2

Where [3] appears, read: AKG-administered uremic rats, Krebs Ringer vs Uremic buffer incubation.

“Also recorded” adds a separate entry of the source.

In the case of `N[C@@H](Cc1cc(I)c(Oc2ccc(O)c(I)c2)c(I)c1)C(=O)O` [T3, 3,5,3′-triiodothyronine], the “rate of fatigue of soleus muscle” value in the assay with soleus muscles is “rapid rate of fatigue”.

Take `O=C(O)CCC(=O)C(=O)O` [AKG, alpha-ketoglutarate]: in assay [1] (setting [3]), the “endurance profile of soleus muscle (buffer effect)” value is “better endurance profile”. Besides, the “endurance of soleus muscles” value in assay [1] (control rats given AKG vs placebo, incubated in Krebs Ringer) is reported as “improves the endurance; also recorded: improved endurance”. For the same compound, the “slowing of Rate of Force Generation” value is given as roughly 130% in assay [1] (slow-twitch muscles, oral treatment 21 days or less) and roughly 8.5% in assay [2] (fast-twitch muscles, oral treatment 21 days or less). Moreover, the “Maximal Isometric Force improvement” value in assay [1] (slow-twitch muscles, oral treatment 21 days or less, vs untreated controls) is on record as 12%; in assay [2] (fast-twitch muscles, oral treatment 21 days or less, vs untreated controls), 28%. Also, the “endurance performance of extensor digitorum longus muscle” value in assay [2] (AKG administered uremic rats vs placebo administered uremic rats) is “improved performance”. Besides, the “endurance profile of extensor digitorum longus muscle (buffer effect)” value in assay [2] (setting [3]) was “better endurance profile”. Also, the “effect on muscle performance in terms of endurance during sustained contraction” value with muscle (AKG administration) is recorded as “beneficial effect”. Moreover, the “peripheral fatigue during sustained contraction at normal working frequency” value in the assay with muscle (oral AKG) is on record as “reduce”. Besides, the “period within which muscle function improves” value in the assay with muscle (oral preparation) is given as no more than 21 days.
